Test results as given in US20070066682A1, “Arylalkylamine vanadium (V) salts for the treatment and/or prevention of Diabetes mellitus” (priority 2005, published 2007).
Entries after “also recorded” stand apart in the source; their conditions may differ.

Columns and labels:
db/db mice = test: Chronic treatment of obese diabetic db/db mice, glycemia; assay type: in vivo, mouse
Description: (§1) Male Wistar rats weighting 180-220 g were purchased from Harlan (Interfauna Ibèrica S.A., Spain). Diabetes was induced by a single intraperitoneal injection of a freshly prepared solution of streptozotocin (in some studies the dose was 45 mg/kg body weight and in some others 100 mg/kg body weight dissolved in 50 mM citrate buffer, pH 4.5). Only diabetic animals with glycemia above 300 mg/dl were used. The animals were housed in animal quarters at 22° C., with a 12 h light/12 h dark cycle and were fed ad libitum. All procedures used were approved by the animal ethical committee of the University of Barcelona, Spain. Male mice C57 BL/Ks bearing the db/db mutation (Jackson Laboratories, Bar Harbor, Me.) were purchased from Harlan France (Gannat, France). C57BL/6J male mice were assigned for 16 weeks to very high-fat diet containing (in kcal): 72% from fat, 28% from proteins and <1% from carbohydrates (Burcelin et al., 2002, Am. J. Physiol. Endocrinol. Metab 282: E834-E842).

[1] = system: streptozotocin-induced diabetic rat with undetectable circulating insulin; test: Subcutaneous treatment of streptozotocin (100 mg/kg) diabetic rats with undetectable circulating insulin; assay type: in vivo
Description: as §1
(§2) In glucose tolerance tests and in chronic treatments, circulating glucose concentrations were determined by a rapid glucose analyser (Accutrend® Sensor Comfort, Roche, Basel. Switzerland). Plasma insulin (IRI) concentration was determined by ELISA method using a kit obtained from Crystal Chem Inc. (Downers Grove, Ill.). Plasma triglycerides (Biosystems, Barcelona, Spain) and NEFAS (Wako Chemicals, Neuss, Germany) were determined with standard […] methods.
To this end, rats were made diabetic by the injection of a large dose of streptozotocin (100 mg/kg) that eliminates β-pancreatic insulin content. […] These streptozotocin-induced diabetic rats were subcutaneously treated with B6V10 (2.5 μmol/kg) (solid squares, FIG. 9A) delivered by osmotic minipumps or left untreated (solid circles, FIG. 9A). Sham-operated nondiabetic rats were also untreated (solid triangles, FIG. 9A).
The concentration of circulating glucose under these conditions was also assayed. After 28 days of treating diabetic rats with hexaquis(benzylammonium) decavanadate (2.5 μmol/kg) (wide striped bars, FIG. 9B), or with decavanadate (close striped bars, FIG. 9B) delivered by osmotic minipumps, plasma insulin and glucose were measured. Untreated diabetic (solid bars, FIG. 9B) or nondiabetic rats (open bars, FIG. 9B) were similarly assayed as controls.

[2] = system: isolated mouse adipocytes; test: Glucose transport (2-DG) in isolated mouse adipocytes; assay type: cell-based; conditions: 100 μM
Description: Adipose cells from FVB mice were incubated for 45 minutes in basal conditions (Basal) or in the presence of 100 nM insulin (Ins), and different concentrations of hexaquis(benzylammonium) decavanadate (B6V10) in the absence or in the presence of 1 mM semicarbazide (SCZ) and thereafter, 2-DG transport was measured over 5 min.

[3] = system: mice made glucose intolerant by a high fat diet; test: Glucose tolerance and plasma insulin in high-fat fed mice, acute administration; assay type: in vivo, mouse; conditions: dihydrate
Description: Male Wistar rats weighting 180-220 g were purchased from Harlan (Interfauna Ibèrica S.A., Spain). Diabetes was induced by a single intraperitoneal injection of a freshly prepared solution of streptozotocin (in some studies the dose was 45 mg/kg body weight and in some others 100 mg/kg body weight dissolved in 50 mM citrate buffer, pH 4.5). Only diabetic animals with glycemia above 300 mg/dl were used. The animals were housed in animal quarters at 22° C., with a 12 h light/12 h dark cycle and were fed ad libitum. All procedures used were approved by the animal ethical committee of the University of Barcelona, Spain. […]
as §2
Insulin and glucose responses during the glucose tolerance test were calculated as the incremental plasma values integrated over a period of 120 min after injection of glucose. […] Data distribution was analyzed by the Kolmogorov-Smirnov test. […]

[4] = system: streptozotocin-induced diabetic rats; test: Chronic oral treatment of streptozotocin (45 mg/kg) diabetic rats, glycemia; assay type: in vivo, rat
Description: as §1
(§3) Osmotic minipumps delivering B6V10 (2.5 μmol/kg body wt/day) or decavanadate (2.5 μmol/kg body wt/day) were implanted subcutaneously in diabetic rats anaesthetised by ketamine hydrochloride (95 mg/kg) and xylasine (10 mg/kg). […] Glycemia was measured on arterio-venous blood collected from the tail vessels at 09:00 am for two weeks, before the administration of vanadate. Insulin concentrations were determined before and after treatment. In another set of experiments, B6V10 was orally administered at a single dose of 5 μmol/kg/day during the first week and 10 μmol/kg/day during 2 additional weeks by gastric gavage. A control group received the corresponding decavanadate salt in the absence of benzylamine. At the end of the treatment, animals were sacrificed and the liver, fat pad, heart and lung were kept at −80° C. and the plasma at −20° C. until their use for in vitro analysis.
as §2
The effect of the oral administration of hexaquis(benzylammonium) decavanadate on glycemia from diabetic rats was also studied. Diabetes was induced in rats by intravenous administration of streptozotocin, and subsequently, a hexaquis(benzylammonium) decavanadate or sodium decavanadate unique dose was administered to the rats. […] After seven days of treatment, the dose was increased at 10 μmol/kg/day which was maintained for an additional ten days. […] Thus, glycemia in sodium decavanadate treated rats was approximately 450 mg/dl and glycemia of hexaquis(benzylammonium) decavanadate treated rats was approximately 250 mg/dl.
(§4) Chronic in vivo efficacy of B6V10 was evaluated in streptozotocin-induced diabetic rats and in db/db mice. Streptozotocin-induced (45 mg/kg) diabetic rats were subcutaneously treated with hexaquis(benzylammonium) decavanadate (2.5 μmol/kg) (B6V10, solid squares, FIG. 8A) or with decavanadate (2.5 μmol/kg) (V10, open circles, FIG. 8A) delivered subcutaneously by osmotic minipumps implanted in the dorsal region. Diabetic rats were also sham-operated (untreated, solid diamonds, FIG. 8A). […] These experiments were repeated using an oral administration protocol. Streptozotocin-induced (45 mg/kg) diabetic rats were orally treated with hexaquis(benzylammonium) decavanadate (5 μmol/kg from day 0 to day 7 and 10 μmol/kg/day from day 7 to day 17) (B6V10, solid squares, FIG. 8B) or received decavanadate (10 μmol/kg) (V10, open circles, FIG. 8B). Nondiabetic rats were also untreated (solid triangles, FIG. 8B).

[5] = system: streptozotocin-induced diabetic rats; test: Chronic subcutaneous (osmotic minipump) treatment of streptozotocin (45 mg/kg) diabetic rats, glycemia; assay type: in vivo, rat; conditions: for glycemia during chronic subcutaneous treatment: 2.5 μmol/kg/day by osmotic minipumps, about two weeks, STZ 45 mg/kg rats, dihydrate
Description: as §1, §3, §2
The effect of chronic administration of hexaquis(benzylammonium) decavanadate on glycemia from diabetic rats was determined. Thus, diabetes was induced in rats by intravenous administration of streptozotocin, which destroys the β-pancreatic cells that produce insulin.
as §4, with “Nondiabetic rats were also untreated (solid triangles, FIG. 8B).” left out

## hexaquis(benzylammonium) decavanadate (V) dihydrate [Entry B6V10]
db/db mice
  glycemia: ameliorated glycemia
[1]; 2.5 μmol/kg subcutaneous minipumps, STZ 100 mg/kg, dihydrate
  glycemia in diabetic rats with undetectable insulin: markedly effective in lowering hyperglycemia; also recorded: reducing glycemia; also recorded: significant differences between the B6V10 and the untreated groups; also recorded: antidiabetic effects
[1]; 2.5 μmol/kg, osmotic minipumps, STZ 100 mg/kg
  plasma glucose and insulin after 28 days of treatment: plasma glucose was reduced even without any observable change in the amount of insulin
[1]; chronic treatment with therapeutic doses
  body weight or organ weights: did not affect body weight or organ weights
[2]
  stimulation of glucose transport (% increase): 93%
[3]
  glucose tolerance and plasma insulin levels: ameliorated the pattern of plasma insulin levels; also recorded: amelioration of glucose tolerance and improved plasma insulin levels
[4]; 5 μmol/kg/day for seven days
  glycemia, oral 5 μmol/kg/day: moderate decrease of hyperglycemia that was detected after but two days of treatment
[4]; 10 μmol/kg/day for an additional ten days
  glycemia, oral dose increased to 10 μmol/kg/day: additional decrease in glycemia
[4]; daily oral, 17 days (5 then 10 μmol/kg/day), STZ 45 mg/kg rats, dihydrate
  glycemia during chronic oral treatment: ameliorated hyperglycemia; also recorded: significant correction of hyperglycemia
[4]; oral treatment, after dose increase to 10 μmol/kg/day
  glycemia: approximately 250 mg/dl
[5]
  glycemia during chronic subcutaneous treatment: ameliorated hyperglycemia; also recorded: significant correction of hyperglycemia; also recorded: significant differences in the B6V10 group compared to the untreated group from day 8 of treatment
[5]; listed as hexaquis(benzylammonium) decavanadate
  glycemia during chronic subcutaneous treatment: rapid reduction of the hyperglycemia that was detected after only four days of treatment
[5]; fourteen days of treatment, basal conditions
  glucose transport of adipocytes isolated from treated rats: increased glucose transport under basal conditions equivalent to that seen in the presence of insulin
